Source: ChEMBL document CHEMBL3739342, “Varitatin A, a Highly Modified Fatty Acid Amide from Penicillium variabile Cultured with a DNA Methyltransferase Inhibitor” (J Nat Prod, 2015)
Activity calls are given as the source filed them. The rule behind the calls is not given here.

Key:
Homo sapiens = species: Homo sapiens; assay: Inhibition of PTK (unknown origin) at 1 uM by ELISA
[1] = target: Platelet-derived growth factor receptor beta (Homo sapiens) (UniProt P09619); assay: Inhibition of PDGFR-beta (unknown origin) at 1 uM by ELISA
[2] = target: Receptor tyrosine-protein kinase erbB-4 (Homo sapiens) (UniProt Q15303); assay: Inhibition of ErbB4 (unknown origin) at 1 uM by ELISA
[3] = Cytotoxicity against human HCT116 cells by SRB assay; format: functional, cell-based; conditions: HCT-116

Platelet-derived growth factor receptor beta (Homo sapiens), sequence (P09619 whole entry): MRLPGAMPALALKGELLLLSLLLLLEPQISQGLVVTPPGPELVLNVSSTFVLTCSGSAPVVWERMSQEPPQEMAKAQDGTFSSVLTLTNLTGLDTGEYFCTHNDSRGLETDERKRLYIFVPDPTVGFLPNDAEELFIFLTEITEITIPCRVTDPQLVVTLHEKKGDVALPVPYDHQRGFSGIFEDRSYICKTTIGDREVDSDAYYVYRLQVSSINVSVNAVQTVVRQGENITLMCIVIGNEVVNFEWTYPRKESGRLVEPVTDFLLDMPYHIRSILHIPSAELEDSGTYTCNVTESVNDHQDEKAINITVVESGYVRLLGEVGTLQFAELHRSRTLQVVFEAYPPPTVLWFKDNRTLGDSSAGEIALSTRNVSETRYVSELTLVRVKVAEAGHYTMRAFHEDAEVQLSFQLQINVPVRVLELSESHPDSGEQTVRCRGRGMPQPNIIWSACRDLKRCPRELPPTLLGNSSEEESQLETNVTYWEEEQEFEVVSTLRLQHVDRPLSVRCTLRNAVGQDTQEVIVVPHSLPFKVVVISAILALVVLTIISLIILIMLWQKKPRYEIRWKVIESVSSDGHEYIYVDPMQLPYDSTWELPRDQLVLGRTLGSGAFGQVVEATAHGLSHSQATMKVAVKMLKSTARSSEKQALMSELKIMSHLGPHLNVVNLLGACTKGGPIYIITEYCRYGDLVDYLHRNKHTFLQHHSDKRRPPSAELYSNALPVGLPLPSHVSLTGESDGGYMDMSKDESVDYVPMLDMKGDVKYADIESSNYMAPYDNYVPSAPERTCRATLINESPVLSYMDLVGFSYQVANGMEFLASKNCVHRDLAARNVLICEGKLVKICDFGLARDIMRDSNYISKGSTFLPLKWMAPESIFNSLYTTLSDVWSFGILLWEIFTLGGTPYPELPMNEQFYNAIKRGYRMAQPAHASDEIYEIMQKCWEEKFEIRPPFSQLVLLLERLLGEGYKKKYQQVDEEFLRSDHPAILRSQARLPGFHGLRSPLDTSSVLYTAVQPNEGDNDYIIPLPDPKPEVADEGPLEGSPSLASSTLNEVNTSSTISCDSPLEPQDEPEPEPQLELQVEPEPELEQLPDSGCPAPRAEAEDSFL
Receptor tyrosine-protein kinase erbB-4 (Homo sapiens), sequence (Q15303 whole entry): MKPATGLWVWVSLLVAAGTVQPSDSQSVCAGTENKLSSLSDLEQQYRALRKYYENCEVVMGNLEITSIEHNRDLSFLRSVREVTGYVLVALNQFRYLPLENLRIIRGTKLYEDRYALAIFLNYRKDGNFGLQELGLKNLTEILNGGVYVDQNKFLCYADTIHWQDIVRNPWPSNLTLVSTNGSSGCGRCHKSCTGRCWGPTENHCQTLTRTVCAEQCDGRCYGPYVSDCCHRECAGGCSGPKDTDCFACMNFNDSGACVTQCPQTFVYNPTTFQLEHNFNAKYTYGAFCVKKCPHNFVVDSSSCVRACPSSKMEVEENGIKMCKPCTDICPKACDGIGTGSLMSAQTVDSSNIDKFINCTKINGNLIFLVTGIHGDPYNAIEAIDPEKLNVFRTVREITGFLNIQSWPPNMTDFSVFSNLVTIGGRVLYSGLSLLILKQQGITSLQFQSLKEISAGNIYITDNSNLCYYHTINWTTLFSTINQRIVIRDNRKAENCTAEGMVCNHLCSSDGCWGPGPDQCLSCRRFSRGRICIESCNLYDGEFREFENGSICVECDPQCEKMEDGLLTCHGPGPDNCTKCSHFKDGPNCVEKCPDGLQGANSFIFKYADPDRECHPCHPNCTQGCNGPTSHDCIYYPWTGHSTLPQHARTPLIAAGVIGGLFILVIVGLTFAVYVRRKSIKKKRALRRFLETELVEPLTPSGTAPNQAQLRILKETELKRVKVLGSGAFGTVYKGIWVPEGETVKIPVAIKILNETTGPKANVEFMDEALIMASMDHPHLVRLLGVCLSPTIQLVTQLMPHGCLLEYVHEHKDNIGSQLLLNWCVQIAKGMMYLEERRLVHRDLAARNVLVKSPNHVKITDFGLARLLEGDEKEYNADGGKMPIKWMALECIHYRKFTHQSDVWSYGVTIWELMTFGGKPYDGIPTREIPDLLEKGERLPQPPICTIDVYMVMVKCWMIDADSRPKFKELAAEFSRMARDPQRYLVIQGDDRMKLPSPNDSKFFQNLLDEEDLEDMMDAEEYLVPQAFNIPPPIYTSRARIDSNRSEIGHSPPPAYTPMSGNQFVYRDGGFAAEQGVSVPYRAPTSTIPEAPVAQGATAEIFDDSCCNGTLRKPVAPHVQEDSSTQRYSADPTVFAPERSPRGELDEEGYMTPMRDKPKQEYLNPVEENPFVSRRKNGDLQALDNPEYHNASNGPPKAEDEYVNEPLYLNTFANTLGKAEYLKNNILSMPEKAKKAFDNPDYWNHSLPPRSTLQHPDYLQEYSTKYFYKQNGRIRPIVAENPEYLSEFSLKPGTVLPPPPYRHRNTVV

inhibition (Homo sapiens)	inhibition [1] [%]	inhibition [2] [%]	Structure (SMILES)	IC50 [3] [nM]
Active	50	40	CC[C@@H](C)/C=C/CCCC/C=C/C=C/C=C/C(=O)N[C@@H]1CO[C@@]2(O)C=C[C@@H](Cl)[C@H](O)[C@@]2(O)C1	2800
–	–	–	COc1cccc2c1C(=O)c1c(O)c3c(c(O)c1C2=O)C[C@@](O)(C(=O)CO)C[C@@H]3O[C@H]1C[C@H](N)[C@H](O)[C@H](C)O1 [DOXORUBICIN]	200
